# Results from the Deep4Chem optical property database.
# Assay: solvent given as SMILES
structure (smiles),measurement,setting,value
Cc1c(C(=O)c2c(F)cc(F)cc2F)c2ccc3cccc4c5cccc6ccc1c(c65)c2c34,emission maximum,in ClCCl,499 nm
CN(C)c1nc(N)nc2c1nc(C#N)n2Cc1ccccc1,emission maximum,in C1COCCO1,373 nm
same,emission maximum,in CC#N,378 nm
same,emission maximum,in CO,389 nm
same,emission maximum,in ClCCl,375 nm
COCCOc1ccc(OCCOC)c(C=O)c1,emission maximum,in CC(C)(C)O,441 nm
same,emission maximum,in CC(C)CO,451 nm
same,emission maximum,in CC(C)O,453 nm
same,emission maximum,in CCCCO,457 nm
same,emission maximum,in CCCO,458 nm
same,emission maximum,in CCO,462 nm
same,emission maximum,in CN(C)C=O,425 nm
same,emission maximum,in CNC=O,459 nm
same,emission maximum,in CO,467 nm
same,emission maximum,in NC=O,464 nm
same,emission maximum,in O,483 nm
CCOC(=O)COc1ccc(/C=C/C2=C3C(C)=CC(C)=[N+]3[B-](F)(F)n3c2c2ccccc2c3-c2[nH]c(C)cc2C)cc1,emission maximum,in ClCCl,687 nm
F[B-]1(F)n2c(Cl)ccc2C(c2c(Cl)cccc2Cl)=C2C=CC(NCc3ccccc3)=[N+]21,emission maximum,in CC#N,532 nm
same,emission maximum,in CCCCCC,538 nm
same,emission maximum,in CCOC(C)=O,532 nm
same,emission maximum,in CO,531 nm
same,emission maximum,in ClCCl,537 nm
c1cc2c3ccc[n+]4cccc(c5ccc[n+](c1)c25)c34,emission maximum,in CC#N,442 nm
same,emission maximum,in CS(C)=O,443 nm
same,emission maximum,in C[N+](=O)[O-],441 nm
same,emission maximum,in O,441 nm
COc1cccc2cc(-c3ccc([N+](=O)[O-])cc3)c(=O)oc12,emission maximum,in C1CCOC1,373 nm
same,emission maximum,in CC#N,363 nm
same,emission maximum,in CS(C)=O,385 nm
same,emission maximum,in ClC(Cl)Cl,377 nm
Cc1cc(-c2ccc(-c3n(C)c4ccccc4[n+]3C)cc2)ccc1-c1ccc(-c2n(C)c3ccccc3[n+]2C)cc1,emission maximum,in O,399 nm
COc1ccc(C2=CC(c3cc(OC)cc(OC)c3)=[O+][B-](F)(F)O2)cc1,emission maximum,in CC#N,587.1 nm
same,emission maximum,in CC(C)=O,556.04 nm
same,emission maximum,in CCCCCC,410.21 nm
same,emission maximum,in Cc1ccccc1,450.94 nm
same,emission maximum,in ClCCl,525 nm
COc1ccccc1C1=C2C=CC(=[N+](C)C)C=C2[Si](C)(C)c2cc(N(C)C)ccc21,emission maximum,in O,663 nm
COc1cc(C(=O)c2c(C)c3ccc4cccc5c6cccc7ccc2c(c76)c3c45)cc(OC)c1OC,emission maximum,in ClCCl,456 nm
COc1ccc(-n2c3ccccc3c3cc(/C=C/C(=C(C#N)C#N)c4ccccc4)ccc32)cc1,emission maximum,in C1CCOC1,560 nm
same,emission maximum,in CC#N,594 nm
same,emission maximum,in CC(C)=O,582 nm
same,emission maximum,in CCOC(C)=O,550 nm
same,emission maximum,in CO,597 nm
same,emission maximum,in CS(C)=O,601 nm
same,emission maximum,in Cc1ccccc1,526 nm
same,emission maximum,in ClC(Cl)Cl,554 nm
[O-][n+]1c(/C=C/C=C/c2ccccc2)nc(N2CCOCC2)c2c1CCCC2,emission maximum,in ClCCl,546 nm
N#Cc1cc2ccccc2[nH]1,emission maximum,in C1CCOC1,328 nm
same,emission maximum,in C1COCCO1,329 nm
same,emission maximum,in CC#N,330 nm
same,emission maximum,in CC(C)O,332 nm
same,emission maximum,in CCO,334 nm
same,emission maximum,in CO,335 nm
same,emission maximum,in CS(C)=O,335 nm
same,emission maximum,in O,350 nm
same,emission maximum,in OCC(F)(F)F,339 nm
CCn1c2ccccc2oc2c(C#N)c3oc4ccccc4oc3c(C#N)c21,emission maximum,in ClC(Cl)Cl,555 nm
C(=C\c1ncc2ccccc2n1)/c1ccc(N(c2ccccc2)c2ccccc2)cc1,emission maximum,in C1CCCCC1,449 nm
same,emission maximum,in C1CCOC1,498 nm
same,emission maximum,in CC#N,543 nm
same,emission maximum,in CS(C)=O,547 nm
same,emission maximum,in ClCCl,520 nm
COc1cc(-c2nc(-c3ccccc3)c3ccccn23)ccc1O,emission maximum,in CC#N,489 nm
CCC1=C(C)C(=O)n2c1cc1c(CCC(=O)O)c(C)c(C)n1c2=O,emission maximum,in CO,540 nm
same,emission maximum,in CS(C)=O,510 nm
same,emission maximum,in ClC(Cl)Cl,500 nm
same,emission maximum,in c1ccccc1,470 nm
c1ccc2c(c1)Sc1ccccc1N2c1ccc2c(c1)C1(CC1)c1cc(N3c4ccccc4Sc4ccccc43)ccc1-2,emission maximum,in Cc1ccccc1,494 nm
COc1ccc(C(=O)NC(C)(C)C)c2c1ccc1c3ccccc3c3ccccc3c12,emission maximum,in ClCCl,407 nm
c1ccc2c(c1)-c1ccccc1C21c2ccccc2-c2c1c1c3ccccc3ccc1c1ccccc21,emission maximum,in C1CCOC1,417 nm
F[B-]1(F)OC(c2ccc(Br)cc2)=Cc2c3ccccc3cc[n+]21,emission maximum,in ClC(Cl)Cl,466.4 nm
CCn1c(-c2ccc(-c3ccc4c(c3)C(c3ccccc3)(c3ccccc3)c3ccccc3-4)cc2)c(-c2ccc3ccccc3c2)c(-c2ccc3ccccc3c2)c1-c1ccc(-c2ccc3c(c2)C(c2ccccc2)(c2ccccc2)c2ccccc2-3)cc1,emission maximum,in CCOC(C)=O,441 nm
COc1ccc(OC)cc1,emission maximum,in C1CCCCC1,323.21 nm
CC(=O)c1ccc(-c2cc(C)[o+]c(C)c2)cc1,emission maximum,in ClCCl,405 nm
